Reference: patent US20120065066A1, “NOVEL HERBICIDES” (SYNGENTA CROP PROTECTION LLC, priority 2009, published 2012)

Experiments:
Type in all cases: in vivo
Setaria faberi (SETFA) [1] = test: Test Example B, post-emergence herbicidal test; settings: 250 g/ha, evaluated after 13 days, 100=total damage to plant, 0=no damage to plant
Procedure: (§1) Seeds of a variety of test species were sown in standard soil in pots. After cultivation for one day (pre-emergence) or after 8 days cultivation (post-emergence) under controlled conditions in a glasshouse (at 24/16° C., day/night; 14 hours light; 65% humidity), the plants were sprayed with an aqueous spray solution derived from the formulation of the technical active ingredient in acetone/water (50:50) solution containing 0.5% Tween 20 (polyoxyethelyene sorbitan monolaurate, CAS RN 9005-64-5). The test plants were then grown in a glasshouse under controlled conditions in a glasshouse (at 24/16° C., day/night; 14 hours light; 65% humidity) and watered twice daily. After 13 days for pre and post-emergence, the test was evaluated (100=total damage to plant; 0=no damage to plant). Test Plants: Setaria faberi (SETFA), Alopecurus myosuroides (ALOMY), Echinochloa crus-galli (ECHCG), and Avena fatua (AVEFA).

Avena fatua (AVEFA) [2] = test: Test Example B, post-emergence herbicidal test; settings: 312 h, evaluated after 13 days, 100=total damage to plant, 0=no damage to plant
Procedure: as §1

[3] = tested on: Alopecurus myosuroides (ALOMY); test: Test Example B, post-emergence herbicidal test; settings: 312 h, evaluated after 13 days, 100=total damage to plant, 0=no damage to plant
Procedure: as §1

[4] = tested on: Echinochloa crus-galli (ECHCG); test: Test Example B, post-emergence herbicidal test; settings: 312 h, evaluated after 13 days, 100=total damage to plant, 0=no damage to plant
Procedure: as §1

Setaria faberi (SETFA) [5] = test: Test Example B, pre-emergence herbicidal test; settings: 250 g/ha, evaluated after 13 days, 100=total damage to plant, 0=no damage to plant
Procedure: as §1

Avena fatua (AVEFA) [6] = test: Test Example B, pre-emergence herbicidal test; settings: 312 h, evaluated after 13 days, 100=total damage to plant, 0=no damage to plant
Procedure: as §1

[7] = tested on: Alopecurus myosuroides (ALOMY); test: Test Example B, pre-emergence herbicidal test; settings: 312 h, evaluated after 13 days, 100=total damage to plant, 0=no damage to plant
Procedure: as §1

[8] = tested on: Echinochloa crus-galli (ECHCG); test: Test Example B, pre-emergence herbicidal test; settings: 312 h, evaluated after 13 days, 100=total damage to plant, 0=no damage to plant
Procedure: as §1

Question: How did the “SETFA damage to plant” value (Setaria faberi (SETFA) [1]) turn out when `CCc1cc(C)cc(CC)c1C1=C(O)[C@H]2[C@H]3CC[C@](OC)(CC3)[C@H]2C1=O` [Compound T57] was run?
Answer: 100

Question: What about the pest or weed control at 250 g/ha (Avena fatua (AVEFA) [2]) of the same compound?
Answer: 30%

Question: What about the pest or weed control at 250 g/ha [3] of the same compound?
Answer: 70%

Question: What about the pest or weed control at 250 g/ha [4] of the same compound?
Answer: 100%

Question: What about the “SETFA damage to plant” value (Setaria faberi (SETFA) [5]) of the same compound?
Answer: 100

Question: What about the pest or weed control at 250 g/ha (Avena fatua (AVEFA) [6]) of the same compound?
Answer: 100%

Question: What about the pest or weed control at 250 g/ha [7] of the same compound?
Answer: 100%

Question: And the pest or weed control at 250 g/ha [8]?
Answer: 100%

Question: With `CCc1ccc(-c2ccc(Cl)cc2)cc1C1=C(O)[C@H]2[C@@H]3CC[C@@H](C(=O)C3)[C@H]2C1=O` (racemic) [Compound T7, rac-(3aS,4R,7R,7aR)-2-(4′-chloro-4-ethylbiphenyl-3-yl)hexahydro-4,7-ethanoindene-1,3,8-trione] as the compound, how does the “SETFA damage to plant” value (Setaria faberi (SETFA) [1]) read?
Answer: 60

Question: And the pest or weed control at 250 g/ha (Avena fatua (AVEFA) [2])?
Answer: 20%

Question: What about the pest or weed control at 250 g/ha [3] of the same compound?
Answer: 20%

Question: What about the pest or weed control at 250 g/ha [4] of the same compound?
Answer: 20%

Question: And the “SETFA damage to plant” value (Setaria faberi (SETFA) [5])?
Answer: 90

Question: And the pest or weed control at 250 g/ha (Avena fatua (AVEFA) [6])?
Answer: 70%

Question: And the pest or weed control at 250 g/ha [7]?
Answer: 90%

Question: What about the pest or weed control at 250 g/ha [8] of the same compound?
Answer: 100%

Question: Which results are given for `CO/N=C1/C[C@H]2CC[C@@H]1[C@H]1C(=O)C(c3c(C)cc(C)cc3C)=C(O)[C@@H]21` [Compound T59]?
Answer: SETFA damage to plant (Setaria faberi (SETFA) [1]): 80; pest or weed control at 250 g/ha (Avena fatua (AVEFA) [2]): 0%; pest or weed control at 250 g/ha [3]: 30%; pest or weed control at 250 g/ha [4]: 50%; SETFA damage to plant (Setaria faberi (SETFA) [5]): 80; pest or weed control at 250 g/ha (Avena fatua (AVEFA) [6]): 30%; pest or weed control at 250 g/ha [7]: 90%; pest or weed control at 250 g/ha [8]: 80%

Question: For `Cc1cc(-c2ccccc2)cc(C)c1C1=C(O)[C@@H]2[C@H](C1=O)[C@@H]1C=C[C@H]2CC1` (racemic) [Compound T56, endo-(3aR,4S,7R,7aS)-2-(3,5-dimethylbiphenyl-4-yl)-3a,4,7,7a-tetrahydro-4,7-ethanoindene-1,3-dione], which “SETFA damage to plant” value (Setaria faberi (SETFA) [1]) is on record?
Answer: 100

Question: And the pest or weed control at 250 g/ha (Avena fatua (AVEFA) [2])?
Answer: 60%

Question: And the pest or weed control at 250 g/ha [3]?
Answer: 60%

Question: What about the pest or weed control at 250 g/ha [4] of the same compound?
Answer: 100%

Question: What about the “SETFA damage to plant” value (Setaria faberi (SETFA) [5]) of the same compound?
Answer: 100

Question: What about the pest or weed control at 250 g/ha (Avena fatua (AVEFA) [6]) of the same compound?
Answer: 20%

Question: And the pest or weed control at 250 g/ha [7]?
Answer: 100%

Question: What about the pest or weed control at 250 g/ha [8] of the same compound?
Answer: 100%

Question: What does the source list for `CCc1ccc(-c2ccc(Cl)cc2)cc1C1=C(O)[C@H]2[C@@H]3CC[C@@H](C(=NOC)C3)[C@H]2C1=O` (racemic) [Compound T9, rac-(3aS,4R,7R,7aR)-2-(4′-chloro-4-ethylbiphenyl-3-yl)hexahydro-4,7-ethanoindene-1,3,8-trione 8-(O-methyloxime)]?
Answer: SETFA damage to plant (Setaria faberi (SETFA) [1]): 100; pest or weed control at 250 g/ha (Avena fatua (AVEFA) [2]): 60%; pest or weed control at 250 g/ha [3]: 70%; pest or weed control at 250 g/ha [4]: 90%; SETFA damage to plant (Setaria faberi (SETFA) [5]): 0; pest or weed control at 250 g/ha (Avena fatua (AVEFA) [6]): 0%; pest or weed control at 250 g/ha [7]: 0%; pest or weed control at 250 g/ha [8]: 0%
